From publication PMC3229523, “Identification of Lactoferricin B Intracellular Targets Using an Escherichia coli Proteome Chip” (PLoS ONE, 2011) come the findings set out here.

The test system of one experiment is E. coli K-12 MG1655. Put plainly: E. coli growth inhibition (growth curves, OD595). It is filed as cell-based. As to conditions: 22.4 µM, approx. 10^7 CFU/ml, LB medium, 37°C with shaking, OD595 every 20 min for 7 h 20 min, PBS negative control, Figure 2. How it is done:
The E. coli K-12 MG1655 strain was first inoculated into LB medium and incubated at 37°C with shaking for 16 h. After incubation, the culture was diluted to approximately 10^7 CFU/ml using LB medium. Then, 22.4 µM of N-terminal biotinylated LfcinB (Kelowna Inc.), LfcinB (Kelowna Inc.) or biotin (Thermo) were individually added to the diluted cultures in a 96-well plate. PBS was used as a negative control. Finally, each compound or PBS with E. coli was incubated at 37°C with shaking and the growth curves were observed by measuring the OD595 value every 20 min for 7 h 20 min in a microplate reader (Synergy 2, BioTek®).

For experiment [1], the system named is E. coli K-12 proteins (E. coli proteome chip). Put plainly: E. coli proteome chip assay. As to conditions: 10 nM N-terminal biotinylated LfcinB, 1% BSA, room temperature, 1 h; ratio DyLight 649 to DyLight 549, ProCAT local cut-off; triplicate. It is filed as binding. As to the method:
To fabricate the proteome chips, E. coli K-12 proteins were expressed and purified in a high-throughput fashion. The procedure was modified from Chen et al.. Briefly, E. coli protein expression clones fused with a 6×-His tag, provided by Dr. Mori, were first incubated with glass beads (Biospec Products Inc.) in 2× LB medium containing 30 µg/ml chloramphenicol in 96 DeepWell™ plates (Nunc) at 37°C overnight. The overnight cultures were then diluted with 2× LB that contains 30 µg/ml chloramphenicol to the OD595 value of 0.1. When the cells grew to an OD595 value of 0.7–0.9, 500 µM of isopropyl β-D-thiogalactoside (IPTG) was added to induce protein expression at 37°C for ∼3.5 h. The cultures were then harvested by centrifugation at 3220 g for 5 min at 4°C, and the pellets were stored at −80°C before purification. […]
For image processing of chip assay results, Genepix Pro 6.0 was used to align the protein spot of each individual protein and then all aligned protein image signals were exported as a text file. The text file was analyzed by ProCAT [17], a signal normalization method. The relative ability of LfcinB to bind to each protein was estimated by the ratio of the fluorescence intensity of LfcinB to the fluorescence intensity of an anti-His antibody after the normalization. […]

“Also recorded” adds a separate entry of the source. Ends that are not written are not given here. * marks the point of attachment. Biotin = O=C1N[C@H]2[C@H](CS[C@H]2CCCCC(=O)*)N1

As for `O=C(O)CCCC[C@@H]1SC[C@@H]2NC(=O)N[C@@H]21` [biotin, reference compound], in the experiment with E. coli K-12 MG1655, the “growth curves / inhibition of E. coli growth” value is recorded as “had no influence on E. coli growth”. For the molecule “biotinylated LfcinB: N-terminal biotinylated LfcinB (Kelowna Inc.), used as probe in chip assays (Biotin-FKCRRWQWRMKKLGAPSITCVRRAF; ends and bridges not checked)”, in experiment [1], the “number of proteins selected as LfcinB-binding (top 5% of the E. coli proteome, membrane proteins ruled out)” value is 153 proteins. In addition, in the experiment with E. coli K-12 MG1655, the “growth curves / inhibition of E. coli growth” value is given as “exhibited the same inhibition of E. coli growth; also recorded: exhibit the same antibacterial activity”.
